{"source": "paper PMC4971421", "about": "“Redox-Dependent Modulation of T-Type Ca^2+ Channels in Sensory Neurons Contributes to Acute Anti-Nociceptive Effect of Substance P” (Antioxidants & Redox Signaling, 2016)", "key": {"CaV3.2": {"target": "T1, CaV3.2 (Homo sapiens, UniProt O95180)", "T1 construct": "expressed in transfected cells; host or cells: HEK293 cells, transient transfection with Lipofectamine 2000; The CaV3.2 cDNA was a gift of Dr E. Perez-Reyes; The NK1 cDNA was from the Missouri S&T cDNA Resource Center", "T1 sequence (O95180 whole entry)": "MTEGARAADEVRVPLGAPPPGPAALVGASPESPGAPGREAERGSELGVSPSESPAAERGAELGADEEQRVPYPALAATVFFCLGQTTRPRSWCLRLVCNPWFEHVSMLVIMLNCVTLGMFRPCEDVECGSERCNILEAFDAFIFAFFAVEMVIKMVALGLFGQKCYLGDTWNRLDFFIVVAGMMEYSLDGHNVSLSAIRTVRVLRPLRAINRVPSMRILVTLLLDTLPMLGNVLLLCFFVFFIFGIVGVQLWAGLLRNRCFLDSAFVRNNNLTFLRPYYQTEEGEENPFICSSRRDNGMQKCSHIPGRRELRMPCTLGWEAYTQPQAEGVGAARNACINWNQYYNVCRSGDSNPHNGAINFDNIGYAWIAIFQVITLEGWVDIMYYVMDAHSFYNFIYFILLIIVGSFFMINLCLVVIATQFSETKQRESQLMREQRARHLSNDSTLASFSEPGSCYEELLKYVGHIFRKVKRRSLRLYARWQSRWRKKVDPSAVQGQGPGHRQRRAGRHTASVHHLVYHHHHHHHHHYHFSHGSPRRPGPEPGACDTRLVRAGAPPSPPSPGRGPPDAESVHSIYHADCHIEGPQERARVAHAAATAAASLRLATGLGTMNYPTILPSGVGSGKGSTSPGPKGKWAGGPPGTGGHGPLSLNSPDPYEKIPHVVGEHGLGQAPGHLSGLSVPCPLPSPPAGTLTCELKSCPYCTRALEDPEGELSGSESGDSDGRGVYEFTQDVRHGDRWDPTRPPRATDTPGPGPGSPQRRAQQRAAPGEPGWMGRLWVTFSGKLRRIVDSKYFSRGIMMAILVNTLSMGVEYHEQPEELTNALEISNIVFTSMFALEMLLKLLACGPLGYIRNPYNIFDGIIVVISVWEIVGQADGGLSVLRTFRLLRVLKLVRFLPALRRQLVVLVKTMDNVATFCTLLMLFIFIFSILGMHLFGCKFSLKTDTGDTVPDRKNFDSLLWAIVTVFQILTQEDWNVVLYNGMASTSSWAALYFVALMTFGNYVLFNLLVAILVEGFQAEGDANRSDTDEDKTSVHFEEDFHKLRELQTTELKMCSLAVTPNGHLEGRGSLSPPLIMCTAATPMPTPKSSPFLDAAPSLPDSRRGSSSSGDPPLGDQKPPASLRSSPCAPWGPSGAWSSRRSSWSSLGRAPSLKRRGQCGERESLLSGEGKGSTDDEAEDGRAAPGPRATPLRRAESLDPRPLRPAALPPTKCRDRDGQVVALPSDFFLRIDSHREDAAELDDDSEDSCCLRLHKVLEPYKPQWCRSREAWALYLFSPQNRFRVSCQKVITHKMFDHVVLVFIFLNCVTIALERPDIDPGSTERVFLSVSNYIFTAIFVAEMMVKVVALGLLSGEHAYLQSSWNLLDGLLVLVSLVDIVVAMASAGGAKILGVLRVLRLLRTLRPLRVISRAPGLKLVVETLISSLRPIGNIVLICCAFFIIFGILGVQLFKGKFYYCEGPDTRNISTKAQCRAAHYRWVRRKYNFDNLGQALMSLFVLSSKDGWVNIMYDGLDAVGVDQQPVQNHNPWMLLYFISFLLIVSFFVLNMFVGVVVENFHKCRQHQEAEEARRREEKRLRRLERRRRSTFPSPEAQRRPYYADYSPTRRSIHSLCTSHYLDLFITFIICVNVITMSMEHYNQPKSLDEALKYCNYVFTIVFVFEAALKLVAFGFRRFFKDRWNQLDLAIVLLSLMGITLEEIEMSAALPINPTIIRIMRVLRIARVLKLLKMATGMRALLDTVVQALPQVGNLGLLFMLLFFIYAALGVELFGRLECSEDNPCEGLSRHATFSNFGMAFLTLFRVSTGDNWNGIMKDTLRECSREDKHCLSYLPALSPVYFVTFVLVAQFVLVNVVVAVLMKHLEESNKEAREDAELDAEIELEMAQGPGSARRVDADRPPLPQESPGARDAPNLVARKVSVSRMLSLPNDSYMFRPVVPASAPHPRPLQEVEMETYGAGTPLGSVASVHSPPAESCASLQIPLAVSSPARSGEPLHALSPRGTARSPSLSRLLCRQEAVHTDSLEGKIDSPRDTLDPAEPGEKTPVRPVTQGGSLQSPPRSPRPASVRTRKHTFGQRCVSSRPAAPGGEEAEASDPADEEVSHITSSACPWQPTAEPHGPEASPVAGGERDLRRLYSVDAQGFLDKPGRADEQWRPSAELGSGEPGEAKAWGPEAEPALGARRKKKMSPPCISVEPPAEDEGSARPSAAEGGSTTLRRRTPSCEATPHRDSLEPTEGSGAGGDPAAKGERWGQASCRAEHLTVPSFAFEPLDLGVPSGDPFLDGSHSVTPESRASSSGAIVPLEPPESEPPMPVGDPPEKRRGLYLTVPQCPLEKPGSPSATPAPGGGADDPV", "assay": "Recombinant CaV3.2 current in HEK293 cells co-transfected with NK1 receptor, perforated patch", "assay_type": "cell-based", "procedure": "(§1) DRG neurons from adult male Sprague–Dawley rats (170–180 g) were dissociated as previously described ([13], [29]) and cultured in DMEM supplemented with GlutaMax I, 10% fetal calf serum, penicillin (50 U/ml), and streptomycin (50 μg/ml) on glass coverslips that were coated with poly-D-lysine for 2–5 days in a humidified incubator (37°C, 5% CO2). No growth factors were added to the culture media. HEK 293 cells were cultured in the same DMEM media; cells were passaged every 2 days. Human NK1 receptor (GenBank accession No. AY462098) complementary DNA (cDNA) was from the Missouri Science and Technology cDNA Resource Center. WtCaV3.1 (GenBank accession No. AF027984), wtCaV3.2 (GenBank accession No. AF051946), CaV3.1Q172H, and CaV3.2H191Q were kindly provided by Dr E. Perez-Reyes (University of Virginia). HEK293 cells were transfected using Lipofectamine 2000 (Invitrogen) according to the manufacturer's instructions. ST101 was synthesized in house; Z944 was from Toronto Research Chemicals; PTX was from Enzo Life Science; and FluoZin-3AM was from Life Technologies. All other chemicals were from Sigma.\nIn recordings from HEK 293 cells, amphotericin B-perforated patch-clamp technique was used ([13]). The pipette solution contained the following (in mM): 155 CsCl; 10 HEPES; 1 EGTA; and 4 MgCl2 supplemented with amphotericin B (250 μg/ml), pH 7.4 adjusted with CsOH. The bath solution was the same as for DRG neuron recordings. The access resistance was typically within 8–12 MΩ.\nIn experiments with H2O2, 3% agar-salt (3 M KCl) bridges were used. Concentration dependence of CaV3.2 channel inhibition by zinc was fit to the two-component logistic function:\nwhere N0 is the total amount of zinc-binding sites, N0(max1) is the amount of high-affinity binding sites, N0(max2) is the amount of low-affinity binding sites, Imax is the maximal CaV3.2 peak current amplitude, IC50 is the [Zn^2+] necessary for half-maximal inhibition, and nH is the Hill coefficient. The concentration dependency of the S9SP effect was fit to the one-component logistic function: […]"}, "[1]": {"tested_on": "T-type Ca^2+ channels (LVA Ca^2+ current) in DRG neurons", "assay": "LVA (T-type) Ca2+ current, whole-cell patch clamp, cultured small-diameter DRG neurons", "assay_type": "cell-based, rat", "conditions": "for effect on S9SP-mediated T-type current inhibition: 1 μM S9SP", "procedure": "as §1\nAll recordings were made using Multiclamp 700B amplifier in combination with pCLAMP 10.4 software (Molecular Devices). Voltage-clamp recordings from DRG neurons were made using whole-cell patch clamp. The standard bath solution contained the following (in mM): 150 TEA-Cl; 2.5 CsCl; 2.5 CaCl2; 10 HEPES; 0.5 MgCl2; and 10 glucose (pH 7.4 adjusted with CsOH). The standard pipette solution contained the following (in mM): 110 CsCl; 3 MgCl2; 10 EGTA; 10 HEPES; 3 Mg-ATP; and 0.6 GTP (pH 7.4 adjusted with CsOH). The access resistance was typically within 4–8 MΩ. T-type calcium currents (LVA) were measured by 50 ms square voltage pulses to −40 mV from a holding potential of −90 mV. HVA currents were measured by 200 ms square voltage pulses to 0 mV from a holding potential of −90 mV.\nwhere y is the current inhibition; A1 and A2 are the maximum and minimum effects, respectively; x is the S9SP concentration; and nH is the Hill coefficient."}, "rat hind paw [2]": {"tested_on": "rat hind paw", "assay": "BK-induced nocifensive behavior, pre-injection protocol", "assay_type": "in vivo", "conditions": "pre-injection 50 μl; 1–10 nmol/site, 5 min before BK 10 nmol/site", "procedure": "Sprague–Dawley rats (body weight, 170–180 g) were grouped randomly and allowed to acclimate for at least 30 min in a transparent observation chamber before the experiment. Animals received a 50-μl intraplantar injection of ST101 (0.001–10 nmol/site), BK (10 nmol/site), RTG (1–10 nmol/site), Z944 (0.05–5 nmol/site), SP (0.5–5 nmol/site), or saline, respectively, into the right hind paw. For evaluation of the acute “spontaneous” pain, animals were video-recorded for 30 min after the injection and protective (“nocifensive”) behavior was analyzed as time spent licking, biting, lifting, and flinching the injected paw. The analyses were performed by an observer who was unaware of treatment allocations. In the pre-injection experiments, the right hind paw of the animal received a pre-injection of 50 μl Z944 (0.05–0.5 nmol/site), RTG (1–10 nmol/site), SP (0.5 nmol/site), Z944 (0.05–0.5 nmol/site)+RTG (1 nmol/site), or saline; 5 min later, on the same paw, the animal received a further 50-μl injection of BK (10 nmol/site) together with the pre-injection drug mix. Nocifensive behavior was analyzed as described earlier.\nThe in vivo CaV3.2 knock-down was performed as described earlier ([3]) by using the same ODN sequences that were synthesized by SBS Genetech. AS ODNs had the following sequence: […]. The mismatch ODNs of the following sequence were used as a negative control: […]. The mismatch ODN was not complementary to any known nucleotide sequence. ODNs were reconstituted in saline before injection. ODNs (12.5 μg/rat in 10 μl of saline) or saline were injected intrathecally (i.t.) between the L5 and L6 dorsal spinous processes as described earlier ([3], [42]) under isoflurane anesthesia. The treatment was repeated twice daily for 4 days. The pain tests were performed on the next day after the last injection. After behavioral testing, animals were humanly sacrificed; lumbar DRGs were extracted and analyzed for the knock-down efficiency by comparing the Cacna1h mRNA levels in lumbar (L4 to L6) DRGs of the saline-injected, mismatch ODN-injected, and AS ODN-injected animals using RT-PCR. The same Cacna1h and Gapdh primers as in siRNA experiments were used for RT-PCR."}, "rat hind paw [3]": {"tested_on": "rat hind paw", "assay": "Hargreaves test, paw withdrawal latency to noxious heat", "assay_type": "in vivo", "conditions": "hind-paw injection 50 μl; 0.1–10 nmol/site; 8 min after injection", "procedure": "For measurement of thermal hyperalgesia, the change in the latency of hind-paw withdrawal in response to noxious heat was recorded using the Hargreaves’ plantar method (Ugo Basile) at 8 min after the hind-paw injection of drugs; the heat source was set to 25% of the maximal intensity."}, "[4]": {"tested_on": "intracellular zinc levels in DRG neurons", "assay": "Intracellular zinc imaging with FluoZin-3AM", "assay_type": "cell-based, rat", "conditions": "for effect on zinc levels elevated by ZnPy: in the presence of 10 μM ZnPy", "procedure": "Changes in the intracellular zinc levels were evaluated using fluorescence imaging. DRG cultures were loaded with FluoZin-3AM (5 μM for 30 min at 37°C in the presence of 0.02% pluronic F-127). Cells were washed with extracellular bath solution composed of the following (in mM): 160 NaCl; 2.5 KCl; 2 CaCl2; 1 MgCl2; and 10 HEPES (pH 7.4 adjusted with NaOH); they were imaged using a Leica SP5 fluorescence imaging system assembled on a Leica DMI6000 microscope and illuminated with 488 nm light for 1200 ms (400 Hz) with a 2 s interval. Solutions were applied using a gravity perfusion system."}}, "note": "Read-outs that look alike come from different tables or passages of the source.", "data": [{"molecule": "OO", "note": "[H2O2]", "values": [{"measurement": "effect on recombinant CaV3.2", "setting": "CaV3.2; H2O2", "result": "inhibited"}, {"measurement": "inhibition of LVA current", "setting": "[1]; 300 μM bath application", "result": "~20", "unit": "%"}]}, {"molecule": "COCC(=O)O[C@]1(CCN(C)CCCc2nc3ccccc3[nH]2)CCc2cc(F)ccc2[C@@H]1C(C)C", "note": "[MIB, mibefradil]", "values": [{"measurement": "sensitivity of LVA currents to inhibitor", "setting": "[1]; 3 μM", "result": "sensitive"}]}, {"molecule": "CSCC[C@H](NC(=O)[C@H](CC(C)C)NC(=O)CN(C)C(=O)[C@H](Cc1ccccc1)NC(=O)[C@H](Cc1ccccc1)NC(=O)[C@H](CCC(N)=O)NC(=O)[C@H](CCC(N)=O)NC(=O)[C@@H]1CCCN1C(=O)[C@H](CCCCN)NC(=O)[C@@H]1CCCN1C(=O)[C@@H](N)CCCNC(=N)N)C(N)=O", "note": "[S9SP, [Sar^9]-Substance P]", "values": [{"measurement": "current amplitude in the presence of S9SP, % of basal value", "setting": "CaV3.2; 1 μM S9SP, wtCaV3.2, mean ± SEM, n = 13, SEM", "result": "69.8% ± 6.8%"}]}, {"molecule": "CN(C)CCCn1cc(C2=C(c3c[nH]c4ccccc34)C(=O)NC2=O)c2ccccc21", "note": "[BIM I, bisindolylmaleimide I]", "values": [{"measurement": "effect on S9SP-mediated T-type current inhibition", "setting": "[1]; 200 nM, 20 min pretreatment", "result": "without a significant effect"}]}, {"molecule": "CCOC(=O)Nc1ccc(NCc2ccc(F)cc2)cc1N", "note": "[RTG, retigabine]", "values": [{"measurement": "BK-induced nociception", "setting": "rat hind paw [2]", "result": "significantly attenuated"}, {"measurement": "paw withdrawal latency on radiant heat exposure", "setting": "rat hind paw [3]", "result": "produced a similar effect"}]}, {"molecule": "[Cl-].[Cl-].[Zn+2]", "note": "[ZnCl2]", "values": [{"measurement": "maximal inhibition at the high-affinity site", "setting": "CaV3.2; S9SP-treated cells (1 μM)", "result": "44.1% ± 5.1%"}, {"measurement": "IC50", "setting": "CaV3.2; after S9SP treatment, 1 μM S9SP in all ZnCl2 solutions, read-out: IC50(1), high-affinity site, zinc inhibition of CaV3.2", "result": "0.35 ± 0.25", "unit": "nM"}, {"measurement": "IC50", "setting": "CaV3.2; after S9SP treatment, 1 μM S9SP in all ZnCl2 solutions, read-out: IC50(2), low-affinity site, zinc inhibition of CaV3.2", "result": "923 ± 582", "unit": "nM"}, {"measurement": "maximal inhibition at the high-affinity site", "setting": "CaV3.2; control cells", "result": "9.9% ± 11.3%"}, {"measurement": "IC50", "setting": "CaV3.2; control conditions, two-component logistic fit, 6–12 experiments, read-out: IC50(1), high-affinity site, zinc inhibition of CaV3.2", "result": 0.25, "unit": "nM"}, {"measurement": "IC50", "setting": "CaV3.2; control conditions, two-component logistic fit, 6–12 experiments, read-out: IC50(2), low-affinity site, zinc inhibition of CaV3.2", "result": "495 ± 326", "unit": "nM"}, {"measurement": "inhibition of LVA current", "setting": "[1]; 750 nM, n = 9", "result": "~25", "unit": "%"}, {"measurement": "intracellular zinc levels (FluoZin-3 fluorescence)", "setting": "[4]; 1.5 mM", "result": "large responses"}]}, {"molecule": "O[C@@H](CS)[C@@H](O)CS", "note": "(racemic) [DTT, dithiothreitol]", "values": [{"measurement": "effect on LVA current amplitude on its own", "setting": "[1]; 1 mM", "result": "did not significantly affect"}, {"measurement": "prevention of S9SP effect on LVA current when applied together", "setting": "[1]; 1 mM DTT before and during 1 μM S9SP", "result": "rendered S9SP ineffective"}, {"measurement": "reversal of S9SP-induced LVA current inhibition", "setting": "[1]; 1 mM DTT in continued presence of 1 μM S9SP", "result": "completely reversed"}, {"measurement": "reversal of antimycin A-induced LVA current inhibition", "setting": "[1]; 1 mM DTT, 1 μM antimycin A", "result": "completely reversed"}, {"measurement": "reversal of H2O2-induced LVA current inhibition", "setting": "[1]; 1 mM DTT, 300 μM H2O2", "result": "reversed"}, {"measurement": "effect on zinc levels elevated by ZnPy", "setting": "[4]; 1 mM", "result": "did not alter the elevated zinc levels"}]}, {"molecule": "COc1ccccc1CN[C@H]1CCCN[C@H]1c1ccccc1.Cl.Cl", "note": "[CP-99994, (2S,3S)-3-(2-Methoxybenzylamino)-2-phenylpiperidine dihydrochloride]", "values": [{"measurement": "effect on S9SP-induced LVA current inhibition", "setting": "[1]; 3 μM, 30 min pre-incubation, co-applied with 1 μM S9SP", "result": "abolished the effect of S9SP"}]}, {"molecule": "pertussis toxin [PTX]", "values": [{"measurement": "effect on S9SP-mediated T-type current inhibition", "setting": "[1]; 400 ng/ml overnight pre-treatment", "result": "completely abolished"}]}, {"molecule": "c1ccc(CN(CCN(Cc2ccccn2)Cc2ccccn2)Cc2ccccn2)nc1", "note": "[TPEN, N,N,N′,N′-Tetrakis(2-pyridylmethyl)ethylenediamine]", "values": [{"measurement": "effect on SP- and H2O2-induced inhibitions of recombinant CaV3.2", "setting": "CaV3.2", "result": "prevented"}, {"measurement": "effect on CaV3.2 currents in control conditions", "setting": "CaV3.2; 10 μM", "result": "only marginal augmentation"}, {"measurement": "reversal of S9SP-induced LVA current inhibition", "setting": "[1]; 10 μM TPEN bath application, still in the presence of 1 μM S9SP", "result": "completely reversed"}, {"measurement": "effect on zinc levels elevated by ZnPy", "setting": "[4]; 20 μM", "result": "completely reversed the increase in fluorescence"}]}, {"molecule": "Arg-Pro-Lys-Pro-Gln-Gln-Phe-Phe-Sar-Leu-Met[O2]-NH2 [S9M11SP, [Sar^9, Met(O2)^11]-Substance P]", "values": [{"measurement": "LVA current inhibition", "setting": "[1]; 1 μM", "result": "quantitatively similar to that of S9SP"}]}, {"molecule": "CCCCCC[C@H]1C(=O)O[C@H](C)[C@H](NC(=O)c2cccc(NC=O)c2O)C(=O)O[C@@H](C)[C@@H]1OC(=O)CC(C)C", "note": "[antimycin A]", "values": [{"measurement": "inhibition of LVA current", "setting": "[1]; 1 μM", "result": "~25", "unit": "%"}]}]}
